This note sets out measurements from ChEMBL document CHEMBL1201862, “PubChem BioAssay data set” (2004).

The structures appear in SMILES notation.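 A five-concentration, 48-hour dose response in 96-well plates underlies each endpoint, interpolated linearly between surrounding concentrations. Abbreviation: GI50, concentration required for 50% inhibition of growth.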 Activity calls are given as the source filed them. Rule as the data show it: active = GI50 up to about 1.1 µM and inactive = higher.

Some test systems named below: A549; EKVX; HCC 2998; HOP-62; K562; KM12; M14; MOLT-4; NCI-H226; OVCAR-3; RPMI-8226; SK-MEL-5; SK-OV-3; SNB-19; U-251; RXF 393; SF-539.
Common to all, as to experiment: NCI tumour cell line growth inhibition, 48 h

With `Cc1cccc2c1N(C(=O)/C=C\C(=O)O)C(c1c(C)[nH]c3ccccc13)C2` (configuration not stated), the GI50 in the test on A549 is > 100 µM (inactive); in the test on EKVX it was > 100 µM (inactive); in the test with HCC 2998, 18.5 µM (inactive); in the test on HOP-62, > 100 µM (inactive); in the test with K562, 36.6 µM (inactive); with KM12 it was 33.5 µM (inactive). In addition, the GI50 with M14 is 55.1 µM (inactive); in the test with MOLT-4 it was 31.2 µM (inactive); with NCI-H226, 49.3 µM (inactive); in the test with OVCAR-3 it was > 10 µM (inactive); in the test with RPMI-8226 it was 28.4 µM (inactive); with SK-MEL-5 it was 18.2 µM (inactive). Also, the results for the GI50 in the test with SK-OV-3, in the test on SNB-19 and with U-251 were 30.8 µM (inactive), 36.2 µM (inactive) and > 10 µM (inactive), respectively.
Regarding `COc1cc(Nc2cnc3ccc(C(F)(F)F)cc3n2)cc(OC)c1OC`, the GI50 is 20.4 µM (inactive) in the test on A549; > 100 µM (inactive) in the test with EKVX; 4.43 µM (inactive) with HCC 2998; 23.9 µM (inactive) in the test on HOP-62; 39.7 µM (inactive) in the test with MOLT-4; > 100 µM (inactive) with NCI-H226. For the same compound, the GI50 in the test with OVCAR-3 was > 100 µM (inactive); with RPMI-8226 it was 15.3 µM (inactive); with RXF 393, 68.4 µM (inactive); in the test on SF-539, 32.1 µM (inactive); with SNB-19 it was > 100 µM (inactive); with U-251, > 100 µM (inactive).
For `COC(=O)CSc1nnc(-c2ccc(O)c([N+](=O)[O-])c2)[nH]1`, the GI50 in the test with A549, in the test with EKVX, in the test on HCC 2998, with K562, in the test on M14 and in the test with MOLT-4 was > 100 µM (inactive) throughout. Moreover, the GI50 in the test on NCI-H226, in the test with OVCAR-3, in the test with RPMI-8226, in the test with RXF 393, in the test with SF-539 and in the test with SK-MEL-5 was > 100 µM (inactive) in each case. For the same compound, the GI50 in the test on SNB-19 and in the test on U-251 was > 100 µM (inactive) in each case.
Regarding `O=[N+]([O-])c1ccc(Cl)cc1C1SCc2nc3ccccc3n21` (configuration not stated), the GI50 in the test with A549 was 41.7 µM (inactive); with EKVX, 69.7 µM (inactive); in the test with HCC 2998, 86.3 µM (inactive); in the test on HOP-62, > 100 µM (inactive); in the test on K562 it was 33.1 µM (inactive); in the test on KM12, 41.9 µM (inactive). Moreover, the GI50 in the test with M14 was 31.2 µM (inactive); with MOLT-4, 36.3 µM (inactive); with OVCAR-3 it was 54.1 µM (inactive); in the test on RPMI-8226, 31.2 µM (inactive); with RXF 393, 26.6 µM (inactive); in the test on SF-539, > 100 µM (inactive). Moreover, the GI50 in the test with SK-MEL-5 was 27.7 µM (inactive); with SK-OV-3, 62.8 µM (inactive); with SNB-19, 74.6 µM (inactive); in the test with U-251, 40.4 µM (inactive).
On to `COc1ccc(OC)c2[s+]snc12`, for which the GI50 is 40.1 µM (inactive) in the test with A549; > 100 µM (inactive) in the test with EKVX; > 100 µM (inactive) in the test on HCC 2998; > 100 µM (inactive) with HOP-62; 34.5 µM (inactive) with K562; 38.6 µM (inactive) with KM12. Also, the GI50 is 63.2 µM (inactive) with M14; 70.8 µM (inactive) in the test with MOLT-4; > 100 µM (inactive) with NCI-H226; 34.4 µM (inactive) in the test with OVCAR-3; 72.4 µM (inactive) in the test with RXF 393; 21.4 µM (inactive) with SF-539. For the same compound, the GI50 was 19 µM (inactive) in the test with SK-MEL-5, > 100 µM (inactive) with SK-OV-3, 65.8 µM (inactive) in the test with SNB-19 and 28 µM (inactive) with U-251.
`COc1cc2c(cc1OC)C(C(=O)c1cccc(OC)c1OC)C(=O)N(C)CC2` (configuration not stated): the GI50 with A549, in the test with HOP-62, in the test with K562, in the test on KM12, in the test on M14 and in the test on MOLT-4 was > 100 µM (inactive) in each case. In addition, the GI50 in the test on NCI-H226, in the test with OVCAR-3, in the test with RPMI-8226, in the test on RXF 393, in the test on SK-MEL-5 and with SK-OV-3 was > 100 µM (inactive) throughout. Moreover, the GI50 in the test on SNB-19 and with U-251 was > 100 µM (inactive) in each case.
For the compound `Fc1cccc2cc3ccc4cccc5ccc(c12)c3c45`, the GI50 is > 100 µM (inactive) in the test on A549; 2.66 µM (inactive) with EKVX; 7.52 µM (inactive) in the test with HCC 2998; > 100 µM (inactive) with HOP-62; > 100 µM (inactive) with K562; > 100 µM (inactive) with KM12. Besides, the GI50 with M14 was > 100 µM (inactive); with MOLT-4, > 100 µM (inactive); with NCI-H226, 7.66 µM (inactive); with OVCAR-3, > 100 µM (inactive); in the test on RXF 393, > 100 µM (inactive); in the test on SF-539, > 100 µM (inactive). In addition, the GI50 in the test on SK-MEL-5 was > 100 µM (inactive); in the test with SK-OV-3, 0.771 µM (active); with SNB-19, > 100 µM (inactive); in the test on U-251, > 100 µM (inactive).
Regarding `O=C(NC12CC3CCC1CC(C3)C2)[C@@H]1CCCN1C(=O)OCc1ccccc1` (some centres not stated), the GI50 is 50.4 µM (inactive) with A549; 69.5 µM (inactive) in the test with EKVX; 85.9 µM (inactive) in the test with HCC 2998; > 100 µM (inactive) in the test with HOP-62; 33.7 µM (inactive) in the test on K562; 48.4 µM (inactive) with KM12. The GI50 in the test on M14 was 85.9 µM (inactive); in the test with MOLT-4 it was 30.1 µM (inactive); with NCI-H226 it was 58.9 µM (inactive); in the test with OVCAR-3 it was 89.5 µM (inactive); in the test on RPMI-8226, 36.5 µM (inactive); in the test on RXF 393, 16.8 µM (inactive). Also, the GI50 with SF-539 is > 100 µM (inactive); in the test on SK-OV-3 it was 65.3 µM (inactive); in the test with SNB-19, 50.9 µM (inactive); with U-251, 42.4 µM (inactive).
For `NC(=O)NC1C(C(=O)O)N(Cc2ccccc2)C(=O)N1Cc1ccccc1` (configuration not stated), the GI50 in the test with A549, with EKVX, with HCC 2998, in the test on HOP-62, with K562 and in the test with KM12 was > 100 µM (inactive) each time. The GI50 is > 100 µM (inactive) in the test with M14; 3.72 µM (inactive) in the test on MOLT-4; > 100 µM (inactive) with NCI-H226; > 100 µM (inactive) with OVCAR-3; > 100 µM (inactive) in the test with RPMI-8226; > 100 µM (inactive) in the test with SF-539. Further, the GI50 in the test on SK-MEL-5, in the test on SK-OV-3, in the test with SNB-19 and with U-251 was > 100 µM (inactive) each time.
Turning to `CSc1nc(NC2OC(COC(C)=O)C(OC(C)=O)C(OC(C)=O)C2OC(C)=O)c(-c2csc(N)n2)c(=O)n1C` (configuration not stated), the GI50 in the test with A549 is 43.4 µM (inactive); in the test with HOP-62, 24.2 µM (inactive); in the test on K562, > 100 µM (inactive); in the test on KM12, > 100 µM (inactive); with M14 it was 39.1 µM (inactive); with MOLT-4, > 100 µM (inactive). For the same compound, the GI50 was 15.7 µM (inactive) with NCI-H226; 54 µM (inactive) in the test on OVCAR-3; > 100 µM (inactive) in the test on RPMI-8226; 25.2 µM (inactive) in the test with SF-539; 57.5 µM (inactive) with SK-MEL-5; 50.7 µM (inactive) with SK-OV-3. Moreover, the GI50 with SNB-19 was 56.6 µM (inactive); with U-251, 34.3 µM (inactive).
As for `CC1=C(C(=O)Nc2cc(=O)n(C)c(=O)n2C)C(c2ccco2)C(C(=O)Nc2cc(=O)n(C)c(=O)n2C)=C(C)N1`, the GI50 in the test on A549 is > 100 µM (inactive); in the test with EKVX, > 100 µM (inactive); with HCC 2998, > 100 µM (inactive); in the test with HOP-62 it was 41.5 µM (inactive); with K562 it was > 100 µM (inactive); with KM12, > 100 µM (inactive). Moreover, the GI50 in the test on M14, in the test with MOLT-4, in the test on NCI-H226, in the test on OVCAR-3, in the test with RPMI-8226 and in the test on RXF 393 was > 100 µM (inactive) each time. In addition, the GI50 in the test with SF-539, in the test on SK-MEL-5, in the test on SNB-19 and with U-251 was > 100 µM (inactive) throughout.
Regarding `COC(=O)/C=C/C1C2C3(CCC(C)C12C)OCCS3` (configuration not stated), the GI50 with A549, with EKVX, in the test on HCC 2998, with HOP-62, in the test on K562 and in the test on KM12 was > 100 µM (inactive) throughout. Besides, the GI50 with M14 is > 100 µM (inactive); in the test with MOLT-4 it was 40.6 µM (inactive); with NCI-H226, > 100 µM (inactive); in the test with OVCAR-3, > 100 µM (inactive); in the test with RXF 393, > 100 µM (inactive); in the test on SF-539, > 100 µM (inactive). The GI50 in the test with SK-MEL-5, with SK-OV-3, in the test on SNB-19 and in the test with U-251 was > 100 µM (inactive) throughout.
`COc1ccc(C2CC(=O)c3c(O)cc(O)cc3O2)cc1O` (configuration not stated): the GI50 in the test on A549 is > 100 µM (inactive); in the test with EKVX it was > 100 µM (inactive); with HCC 2998, > 100 µM (inactive); in the test with HOP-62, > 100 µM (inactive); in the test with K562, 28.8 µM (inactive); in the test with KM12, > 100 µM (inactive). Also, the GI50 in the test on M14 is > 100 µM (inactive); in the test with MOLT-4 it was > 100 µM (inactive); in the test on NCI-H226, > 100 µM (inactive); with OVCAR-3, > 100 µM (inactive); in the test with RPMI-8226, 78 µM (inactive); in the test with SF-539, > 100 µM (inactive). Further, the GI50 in the test on SK-MEL-5, with SK-OV-3, with SNB-19 and in the test on U-251 was > 100 µM (inactive) in each case.
